Source: US20070197430A1, “Conjugates And Therapeutic Uses Thereof” (priority 2004, published 2007)
Values joined by “and” are separate entries in the source; they are usually repeats but may differ in a detail not shown here. Identical values can stand only once. Peptide text beside a SMILES is read from it.

How the values were obtained:
[1] = Circular dichroism, alpha-helical content of peptides; format: physicochemical; settings: 30% aqueous trifluoroethanol
Experimental: Circular dichroism spectra were obtained using a Jasco Model J-710 spetropolarimeter at 20° C. using the following parameters: path length, 2 mm; step resolution, 0.1 nm; speed, 20 nm/min, accumulation, 4; response, 1 second; bandwidth, 1.0 nm. The peptides were analysed at a concentration of 0.5 mg/mL in 30% aqueous TFE. The alpha-helical content of the peptides were determined by methods described in Yang et al (1986), involving comparisons of spectra with model helical peptides.

Bcl-xL ΔC25 [2] = biological target: T1, Bcl-xL ΔC25 (Homo sapiens, UniProt Q07817); assay: Alphascreen GST competition assay with biotinylated BimBH3 peptide; format: binding; settings: Example 14, two values given per peptide
Experimental: (§1) Using solution competition assays and Alphascreen GST-detection as described below, the constrained peptide of Example 2 (peptide A) was assessed for competition binding to Bcl-2 homologues, Bcl-w ΔC29, Bcl-xL ΔC25 and Mcl-1 ΔC23.
(§2) All the assays were performed using 384-well white plates in a total volume of 20 μL. The assay buffer is 50 mM HEPES, 10 mM DTT, 100 mM NaCl, 0.05% Tween 20, 0.1 mg/mL casein, pH 7.4. The bead buffer is 50 mM Tris, 1% Tween 20, 0.1 mg/mL casein, pH 7.5.
(§3) For the GST-Bcl-wΔC29 protein assay, protein (0.10 nM), acceptor beads (10 μg/mL), 50% assay buffer and 50% bead buffer were incubated together for 30 minutes. At the same time, biotinylated BimBH3 peptide (Biotin-[…]-OH) (3 nM), donor beads (10 μg/mL), 50% assay buffer and 50% bead buffer were incubated to get for 30 minutes. For the competition binding assay, protein acceptor bead solution (10 μL) and the candidate compound, A, L1 or L2, were added into each well and incubated for 30 minutes, then biotinylated BimBH3 peptide donor bead solution (10 μL) was added into each well. The total DMSO concentration in each well was then adjusted to 0.5% to 2%. Plates were covered with aluminium foil and incubated at room temperature for 4 hours before reading in a Packard Fusion™ reader with excitation at 680 nm and emission at 520-620 nm. […]
Target sequence in this assay (Q07817 1-208 limits assumed): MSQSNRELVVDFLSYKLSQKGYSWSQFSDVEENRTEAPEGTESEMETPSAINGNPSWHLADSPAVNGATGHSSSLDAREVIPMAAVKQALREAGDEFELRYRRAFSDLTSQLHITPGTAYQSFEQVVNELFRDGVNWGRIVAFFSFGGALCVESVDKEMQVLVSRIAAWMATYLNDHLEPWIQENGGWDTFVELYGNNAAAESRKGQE

Mcl-1 ΔC23 [3] = assay: Alphascreen GST competition assay with biotinylated BakBH3 peptide; format: binding; settings: Example 14, two values given per peptide
Experimental: as §1, §2, §3

Mcl-1 ΔC23 [4] = assay: Surface plasmon resonance direct binding (Biacore S51); settings: SPR dissociation constant
From the text: (§4) In separate assay experiments, surface plasmon resonance (SPR) experiments using a Biacore S51 Biosensor were used as proof of direct binding of peptide A to Bcl-w ΔC29, Bcl-xL ΔC25 and Mcl-1 ΔC23. This technique also has the advantage of yielding dissociation constants, which are shown below.

Bcl-xL ΔC25 [5] = biological target: T1, Bcl-xL ΔC25; assay: as above; settings: SPR dissociation constant
From the text: as §4

Bcl-w ΔC29 = biological target: T2, Bcl-w ΔC29 (Homo sapiens, UniProt Q92843); assay: Alphascreen GST competition assay with biotinylated Bim BH3-26 peptide; format: binding; settings: Example 14, two values given per peptide
T2 sequence (Q92843 1-164 limits assumed): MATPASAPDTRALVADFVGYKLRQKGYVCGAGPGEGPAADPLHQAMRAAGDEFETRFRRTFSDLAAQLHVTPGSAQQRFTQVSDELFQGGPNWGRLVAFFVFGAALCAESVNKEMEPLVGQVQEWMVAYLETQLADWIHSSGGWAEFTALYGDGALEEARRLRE

Bcl-2 ΔC22 = Bcl-2 ΔC22 (Homo sapiens, UniProt P10415); assay: Competition assay with biotinylated Bim-BH3 peptide; format: binding; settings: text says Bcl-2 and Bcl-xL
From the text: Alphascreen (Amplified Luminsecent Proximity Homogenous Assay) is a bead based technology which measures a biological interaction between molecules. The assay consists of two hydrogel coated beads which, when bought into close proximity by a binding interaction, allow a transfer of singlet oxygen from a donor bead to an acceptor bead.
Upon binding a photosensitiser in the donor bead converts ambient oxygen to a more excited singlet state. This singlet oxygen then diffuses across to react with a chemiluminescer in the acceptor bead. Fluorophores within the same bead are activated, resulting in the emission of light.

Sequence of Bcl-2 ΔC22 (P10415 1-217 limits assumed): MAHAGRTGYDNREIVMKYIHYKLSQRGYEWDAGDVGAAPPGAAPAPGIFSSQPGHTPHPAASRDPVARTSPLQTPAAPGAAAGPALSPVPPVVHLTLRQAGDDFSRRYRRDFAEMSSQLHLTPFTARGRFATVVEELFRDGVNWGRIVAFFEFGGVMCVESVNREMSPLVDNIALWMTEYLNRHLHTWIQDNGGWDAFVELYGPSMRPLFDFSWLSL

## CC[C@H](C)[C@H](NC(C)=O)C(=O)N[C@@H](C)C(=O)N[C@@H](CCC(N)=O)C(=O)N[C@@H](CCC(=O)O)C(=O)N[C@@H](CC(C)C)C(=O)N[C@@H](CCCNC(=N)N)C(=O)N[C@@H](CCCNC(=N)N)C(=O)N[C@H](C(=O)NCC(=O)N[C@@H](CC(=O)O)C(=O)N[C@@H](CCC(=O)O)C(=O)N[C@@H](Cc1ccccc1)C(N)=O)[C@@H](C)CC [Peptide L1] (Ac-IAQELRRIGDEF-NH2)
[1]
  % Helicity: 9%
Bcl-xL ΔC25 [2]
  IC50: 7000 nM and 6300 nM
Mcl-1 ΔC23 [3]
  IC50: 400 nM and 360 nM
Mcl-1 ΔC23 [4]
  Kd: 1200 nM
Bcl-xL ΔC25 [5]
  Kd: 5200 nM
Bcl-w ΔC29
  IC50: 820 nM and 800 nM

## CC[C@H](C)[C@H](NC(C)=O)C(=O)N[C@@H](C)C(=O)N[C@@H](CCC(N)=O)C(=O)N[C@@H](CCC(N)=O)C(=O)N[C@@H](CC(C)C)C(=O)N[C@@H](CCCNC(=N)N)C(=O)N[C@@H](CCCNC(=N)N)C(=O)N[C@H](C(=O)NCC(=O)N[C@@H](CC(=O)O)C(=O)N[C@@H](CCC(N)=O)C(=O)N[C@@H](Cc1ccccc1)C(N)=O)[C@@H](C)CC [Peptide L2] (Ac-IAQQLRRIGDQF-NH2)
Bcl-xL ΔC25 [2]
  IC50: 960 nM and 890 nM
Mcl-1 ΔC23 [3]
  IC50: 650 nM and 660 nM
Mcl-1 ΔC23 [4]
  Kd: 920 nM
Bcl-xL ΔC25 [5]
  Kd: 370 nM
Bcl-w ΔC29
  IC50: 120 nM

## CC[C@H](C)[C@H](NC(C)=O)C(=O)N[C@@H](C)C(=O)N[C@@H](CCC(N)=O)C(=O)N[C@H]1CCC(=O)NCCCCCCNC(=O)CC[C@@H](C(=O)N[C@@H](Cc2ccccc2)C(N)=O)NC(=O)[C@H](CC(=O)O)NC(=O)CNC(=O)[C@H]([C@@H](C)CC)NC(=O)[C@H](CCCNC(=N)N)NC(=O)[C@H](CCCNC(=N)N)NC(=O)[C@H](CC(C)C)NC1=O [C, Ac-IAQ-E-LRRIGD-E-F-NH2] (HELM PEPTIDE1{[ac].I.A.Q.E.L.R.R.I.G.D.E.F.[am]}|CHEM1{[C(CCCN[*:2])CCN[*:1]]}$PEPTIDE1,CHEM1,5:R3-1:R1|PEPTIDE1,CHEM1,12:R3-1:R2$$$V2.0)
[1]
  % Helicity: 39%
Bcl-2 ΔC22
  affinity over the unconstrained 12-mer, in words: outstanding increases in affinity
